Active and inactive are the calls of the source.
Experiments:
[1] = molecular target: ATP-dependent molecular chaperone HSP82 (Candida albicans (strain WO-1) (Yeast), UniProt C4YTQ8); experiment: steroid-induced GRE reporter decrease in yeast – S. cerevisiae, luminescence, Hsp90 inhibitor project, dose response (AID 2400); format: functional, cell-based;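 note: beta-galactosidase luminescence from glucocorticoid response element reporter as proxy for Hsp90 function; inhibitor potency where signal loss means Hsp90 inhibition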
[2] = NIH-3T3 fibroblast cytotoxicity, dose response, cytotoxicity control, cell-based, fluorescence, Alamar Blue, secondary assay (AID 2327); format: functional;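 note: NIH-3T3 mouse fibroblasts cultured with fluconazole at 8 µg/mL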
[3] = molecular target: Peroxisome proliferator-activated receptor gamma/Nuclear receptor coactivator 2 (Homo sapiens, UniProt P37231); experiment: (§1) TR-FRET dose response biochemical High Throughput Screening assay for agonists of the steroid receptor coactivator 2 (SRC-2) recruitment by the peroxisome proliferator-activated receptor gamma (PPAR gamma): non-selective agonists. [Related pubchem assays: 1297, 1032 ]; format: functional
[4] = fluconazole-exposed Candida albicans growth modulators – fluorescence, retest, confirmation (AID 2467); format: functional, cell-based
[5] = molecular target: Peroxisome proliferator-activated receptor gamma/Nuclear receptor coactivator 3 (Homo sapiens, UniProt P37231); experiment: as §1, with “3 (SRC-3)” for “2 (SRC-2)”, “1301 (Confirmation screen.), 1048 (Primary screen.)]” for “1297, 1032 ]”; format: functional
[6] = molecular target: T1, Serine/threonine-protein phosphatase (Candida dubliniensis (strain CD36 / CBS 7987 / NCPF 3949 / NRRLY-17841) (Yeast), UniProt B9W6M3); experiment: blockers of CaCl2-induced CDRE-lacZ signaling – S. cerevisiae, luminescence, secondary, dose response (AID 2388); format: functional, cell-based;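 note: yeast reporter cells carrying a calcineurin-responsive lacZ construct stimulated with calcium chloride; luminescent beta-galactosidase reporter signal in whole cells rather than isolated phosphatase activity; potency for inhibition where a drop in reporter signal means calcineurin blockade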
T1 sequence (B9W6M3 whole entry): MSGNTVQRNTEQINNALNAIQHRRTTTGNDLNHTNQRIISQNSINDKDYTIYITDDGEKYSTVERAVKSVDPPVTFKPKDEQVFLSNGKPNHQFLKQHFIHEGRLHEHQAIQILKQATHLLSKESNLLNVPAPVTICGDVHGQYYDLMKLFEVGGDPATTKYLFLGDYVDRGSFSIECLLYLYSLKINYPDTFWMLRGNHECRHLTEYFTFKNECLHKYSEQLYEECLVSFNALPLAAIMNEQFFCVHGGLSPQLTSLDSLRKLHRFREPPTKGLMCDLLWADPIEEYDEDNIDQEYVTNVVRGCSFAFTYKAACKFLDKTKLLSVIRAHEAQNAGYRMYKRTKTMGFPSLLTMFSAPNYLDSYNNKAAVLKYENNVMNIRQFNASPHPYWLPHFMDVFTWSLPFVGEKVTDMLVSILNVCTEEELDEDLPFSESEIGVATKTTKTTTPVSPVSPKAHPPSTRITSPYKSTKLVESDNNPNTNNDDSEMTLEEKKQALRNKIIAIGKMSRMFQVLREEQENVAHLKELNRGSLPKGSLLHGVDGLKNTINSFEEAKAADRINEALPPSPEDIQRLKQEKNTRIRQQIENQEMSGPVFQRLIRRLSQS

[7] = molecular target: Troponin, cardiac muscle (Homo sapiens, UniProt P19429+P45379+P63316); experiment: Fluorescence-based biochemical high throughput dose response assay for activators of the calcium sensitivity of cardiac Regulated Thin Filaments (RTF). [Related pubchem assays (depositor defined):AID493008, AID493018, AID504382, AID504383]; format: protein-complex assay
[8] = molecular target: Peroxisome proliferator-activated receptor gamma/Nuclear receptor coactivator 1 (Homo sapiens, UniProt P37231); experiment: as §1, with “1 (SRC-1)” for “2 (SRC-2)”, “assays (depositor defined):AID1300, AID1808, AID504735, AID631]” for “assays: 1297, 1032 ]”; format: protein assay
[9] = tested on: Escherichia coli; experiment: microbe, parasite or virus in culture
[10] = molecular target: T2, Protein RecA (Mycobacterium tuberculosis, UniProt P9WHJ3); experiment: Fluorescence Cell-Free Homogeneous Dose Retest to Identify Inhibitors of RecA-Intein Splicing Activity. [Related pubchem assays (depositor defined):AID2097, AID2223, AID489010, AID492950]; format: functional
T2 sequence (P9WHJ3 whole entry): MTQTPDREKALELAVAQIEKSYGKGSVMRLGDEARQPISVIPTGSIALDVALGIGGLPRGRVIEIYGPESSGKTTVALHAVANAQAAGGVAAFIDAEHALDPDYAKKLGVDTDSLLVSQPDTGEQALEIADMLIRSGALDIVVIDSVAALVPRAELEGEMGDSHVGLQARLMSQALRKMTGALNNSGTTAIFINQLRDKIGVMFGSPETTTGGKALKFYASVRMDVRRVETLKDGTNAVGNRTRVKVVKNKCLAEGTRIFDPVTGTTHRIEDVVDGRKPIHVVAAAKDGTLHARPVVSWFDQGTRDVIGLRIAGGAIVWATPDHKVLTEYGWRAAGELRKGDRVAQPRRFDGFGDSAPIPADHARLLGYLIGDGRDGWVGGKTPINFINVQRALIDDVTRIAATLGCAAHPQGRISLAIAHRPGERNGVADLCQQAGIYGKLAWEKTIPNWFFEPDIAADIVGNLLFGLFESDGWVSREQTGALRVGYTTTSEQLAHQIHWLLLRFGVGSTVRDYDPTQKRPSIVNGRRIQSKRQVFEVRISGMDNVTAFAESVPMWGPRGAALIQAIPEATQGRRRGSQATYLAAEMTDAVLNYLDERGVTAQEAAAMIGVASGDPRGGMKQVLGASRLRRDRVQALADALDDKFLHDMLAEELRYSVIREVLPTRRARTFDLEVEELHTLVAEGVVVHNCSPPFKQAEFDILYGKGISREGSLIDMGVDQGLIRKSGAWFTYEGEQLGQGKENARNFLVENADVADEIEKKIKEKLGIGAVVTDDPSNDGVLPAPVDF

[11] = molecular target: T3, Microphthalmia-associated transcription factor (Homo sapiens, UniProt O75030); experiment: reducers of TRPM1 reporter luminescence, concentration series – cell-based, SK-MEL-5, cherry-picked, set 3, MITF inhibitor project, dose response (AID 493073); format: functional;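 note: SK-MEL-5 melanoma cells with luciferase driven by the MITF target TRPM1 promoter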
T3 sequence (O75030 whole entry): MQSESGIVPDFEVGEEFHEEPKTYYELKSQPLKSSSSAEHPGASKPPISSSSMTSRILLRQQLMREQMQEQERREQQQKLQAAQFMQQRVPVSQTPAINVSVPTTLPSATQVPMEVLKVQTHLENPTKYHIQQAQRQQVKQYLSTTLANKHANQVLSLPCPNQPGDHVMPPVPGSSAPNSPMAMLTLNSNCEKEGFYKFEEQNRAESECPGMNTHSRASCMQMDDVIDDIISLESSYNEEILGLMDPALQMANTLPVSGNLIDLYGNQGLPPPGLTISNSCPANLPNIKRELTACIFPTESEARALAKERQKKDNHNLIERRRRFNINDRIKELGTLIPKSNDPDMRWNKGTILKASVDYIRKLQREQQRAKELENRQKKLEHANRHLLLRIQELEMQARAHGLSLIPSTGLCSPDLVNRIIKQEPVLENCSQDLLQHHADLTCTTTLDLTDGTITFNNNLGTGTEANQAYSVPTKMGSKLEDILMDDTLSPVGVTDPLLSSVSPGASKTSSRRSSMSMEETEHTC

[12] = molecular target: T4, Replicative DNA helicase DnaB (Mycobacterium tuberculosis, UniProt P9WMR3); experiment: DnaB intein splicing inhibitors, dose response, biochemical, cell-free fluorescence (AID 449749); format: functional
T4 sequence (P9WMR3 whole entry): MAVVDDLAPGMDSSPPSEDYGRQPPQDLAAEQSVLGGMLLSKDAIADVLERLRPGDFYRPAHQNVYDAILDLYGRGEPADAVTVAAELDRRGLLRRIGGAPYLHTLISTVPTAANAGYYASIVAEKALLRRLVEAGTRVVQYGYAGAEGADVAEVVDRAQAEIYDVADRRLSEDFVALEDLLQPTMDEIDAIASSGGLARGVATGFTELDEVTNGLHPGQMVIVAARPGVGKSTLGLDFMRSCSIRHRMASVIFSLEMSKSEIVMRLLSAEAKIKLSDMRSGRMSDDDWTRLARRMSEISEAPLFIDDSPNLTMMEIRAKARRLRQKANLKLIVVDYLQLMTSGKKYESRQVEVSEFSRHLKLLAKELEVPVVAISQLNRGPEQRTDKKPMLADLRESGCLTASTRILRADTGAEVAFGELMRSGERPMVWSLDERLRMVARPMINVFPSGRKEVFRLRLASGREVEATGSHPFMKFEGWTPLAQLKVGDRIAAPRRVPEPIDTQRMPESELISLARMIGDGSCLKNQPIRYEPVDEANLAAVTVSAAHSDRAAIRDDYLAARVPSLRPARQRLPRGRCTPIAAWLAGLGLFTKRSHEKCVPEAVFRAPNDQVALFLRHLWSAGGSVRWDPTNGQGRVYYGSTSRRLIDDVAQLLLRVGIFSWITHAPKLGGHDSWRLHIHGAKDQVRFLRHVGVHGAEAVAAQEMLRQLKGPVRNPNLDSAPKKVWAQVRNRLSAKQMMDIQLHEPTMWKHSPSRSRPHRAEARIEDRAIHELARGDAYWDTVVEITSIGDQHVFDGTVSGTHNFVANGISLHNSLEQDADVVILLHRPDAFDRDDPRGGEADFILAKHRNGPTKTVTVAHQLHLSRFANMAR

[13] = tested on: A-375; experiment: MITF: Counter assay: A375 proliferation Measured in Cell-Based System Using Plate Reader - 2084-03_Inhibitor_Dose_DryPowder_Activity. [Related pubchem assays (depositor defined):AID488944]; format: functional; settings: Homo sapiens
[14] = molecular target: T5, Apoptotic protease-activating factor 1 (Homo sapiens, UniProt O14727); format: functional
T5 sequence (O14727 whole entry): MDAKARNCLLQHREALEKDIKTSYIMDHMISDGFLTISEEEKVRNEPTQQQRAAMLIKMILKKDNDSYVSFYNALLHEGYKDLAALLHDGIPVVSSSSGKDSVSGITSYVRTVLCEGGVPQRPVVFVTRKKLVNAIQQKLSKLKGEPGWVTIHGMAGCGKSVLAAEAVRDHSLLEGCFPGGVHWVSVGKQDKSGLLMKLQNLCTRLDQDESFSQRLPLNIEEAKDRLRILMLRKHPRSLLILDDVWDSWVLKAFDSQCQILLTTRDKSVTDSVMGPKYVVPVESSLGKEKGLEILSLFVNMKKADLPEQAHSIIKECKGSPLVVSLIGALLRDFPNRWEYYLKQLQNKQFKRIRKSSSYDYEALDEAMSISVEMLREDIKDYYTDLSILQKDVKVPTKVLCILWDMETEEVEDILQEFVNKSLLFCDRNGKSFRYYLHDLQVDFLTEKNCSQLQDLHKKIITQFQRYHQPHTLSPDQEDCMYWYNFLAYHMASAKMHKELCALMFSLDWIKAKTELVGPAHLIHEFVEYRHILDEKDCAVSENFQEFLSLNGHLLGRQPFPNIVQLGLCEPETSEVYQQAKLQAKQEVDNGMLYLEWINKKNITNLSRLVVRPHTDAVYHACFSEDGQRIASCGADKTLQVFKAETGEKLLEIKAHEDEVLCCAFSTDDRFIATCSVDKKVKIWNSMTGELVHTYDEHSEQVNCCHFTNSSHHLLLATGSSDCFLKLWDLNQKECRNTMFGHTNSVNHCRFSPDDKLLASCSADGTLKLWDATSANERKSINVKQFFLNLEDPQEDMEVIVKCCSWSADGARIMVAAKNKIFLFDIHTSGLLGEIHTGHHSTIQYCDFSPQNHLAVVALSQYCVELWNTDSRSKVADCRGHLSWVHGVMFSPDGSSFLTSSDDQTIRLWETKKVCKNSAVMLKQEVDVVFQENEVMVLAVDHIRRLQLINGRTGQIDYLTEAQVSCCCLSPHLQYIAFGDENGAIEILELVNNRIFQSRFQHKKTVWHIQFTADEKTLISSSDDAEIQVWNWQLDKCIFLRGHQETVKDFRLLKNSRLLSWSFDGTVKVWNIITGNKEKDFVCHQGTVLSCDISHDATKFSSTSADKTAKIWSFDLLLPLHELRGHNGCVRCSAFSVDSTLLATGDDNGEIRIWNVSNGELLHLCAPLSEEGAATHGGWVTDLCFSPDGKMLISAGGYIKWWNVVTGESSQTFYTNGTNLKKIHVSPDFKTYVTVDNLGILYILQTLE

Structure (SMILES): Cc1c(O)c2c3c(cccc3c1O)C(=O)N(c1ccccc1)C2=O
- EC50 [1]: 82.8 µM (active)
- EC50 [2]: > 150 µM (inactive)
- EC50 [3]: > 79.4 µM (not active)
- EC50 [4]: 0.492 µM (active)
- EC50 [5]: > 79.4 µM (not active)
- EC50 [6]: > 180 µM (inactive)
- EC50 [7]: 2.9 µM (active)
- EC50 [8]: > 79.4 µM (inactive)

Structure (SMILES): CC1CN(S(=O)(=O)c2ccc(C(=O)Nc3ccccc3F)cc2)CC(C)O1 (stereo not given)
- AC50 [9]: 25.1 µM (active)

Structure (SMILES): CC1(C)CC(=O)C/C(=N\NC(=O)CCc2ccc(S(=O)(=O)N3CCOCC3)cc2)C1
- AC50 [9]: 44.6 µM (active)

Structure (SMILES): CC1=C(CC(=O)c2ccccc2)C(=O)c2ccccc2C1=O
- EC50 [10]: 3.45 µM (active)
- AC50 [11]: 7.15 µM (active)
- AC50 [12]: 18.7 µM (active)
- AC50 [13]: 42.7 µM (active)
- IC50 [14]: 28.8 µM (active)

Reference: ChEMBL document CHEMBL1201862, “PubChem BioAssay data set” (2004)
